Drawing on patent publication US20120114797A1, “TALAROMYCES STRAINS AND ENZYME COMPOSITIONS” (DSM IP ASSETS B.V., priority 2009, published 2012), this text covers MIC for 2 compounds.

One test concerns TEC-142. The test can be described thus: MIC of glucose analogs on YNB+agar plates, TEC-142. Particulars: 10^7/ml spore suspensions of TEC-142 on YNB+agar plates. The class given is cell-based, Talaromyces emersonii.
The subject of another test is TEC-180. The test can be described thus: MIC of 2-deoxyglucose on YNB+agar plates, TEC-180. The class given is cell-based, Talaromyces emersonii. Particulars: 10^7/ml spore suspensions of TEC-180 on YNB+agar plates.

Protocol for TEC-142: MIC values of various glucose analogs (2-deoxyglucose, 1-thioglucose, 5-thioglucose) are determined by examining growth after inoculation of 0.1 ml dilutions of 10^7/ml spore suspensions of TEC-142 on YNB+agar plates with increasing concentrations of analogs.
The MIC value of 2-deoxyglucose (DOG) was determined by examining growth after inoculation of 0.1 ml dilutions of 10^7/ml spore suspensions of TEC-142 on YNB+agar plates with increasing concentrations of analog.

What is called MIC is the least concentration at which growth counts as inhibited. With `OC[C@@H](O)[C@@H](O)[C@H](O)[C@@H](O)C=S` [1-thioglucose], the MIC in the test with TEC-142 was determined as 4000 µg/mL.

Consider `O=CC[C@@H](O)[C@H](O)[C@H](O)CO` [2-deoxyglucose, 2-deoxy-D-glucose], for which the MIC with TEC-180 and with TEC-142 was 500 µg/mL each time.
